# Columns and labels:
# Type in all cases: in vivo, Glycine max
# [1] = system: soybean (A3237) in sand saturated with 3 mg/L ancymidol; assay: GA3 seed coating, reversal of ancymidol inhibition of soybean stature; conditions: 3 mg GA3/kg seed (Release blended with talc); plant height at 6 DAP
# Experimental: (§1) The timing of emergence and plant stature at for transgenic (plasmid pMON29801, FMV/asCPScc) soybean line 724 is rescued by sowing seeds in soil saturated with 3×10^−6 M GA3. At 7 days after planting (DAP), the GA3 treatment to the seeds rescued plant stature to within 10% of the A3237 control. As an additional control, soybean (A3237) seeds are coated with different concentrations of a commercial formulation of GA3 (Release®) blended with talc and sown in sand saturated with 3 mg/L ancymidol and grown in a greenhouse. Plant height is measured at 6 DAP. […] This rate is equivalent to approximately 62 mg GA3 per acre (assuming 140,000 seeds/acre).
# [2] = Concentration of 14C-GA3 in germinating soybean seedlings after seed treatment
# Description: Application of ^14C-GA3 to Asgrow 3237 soybeans as a seed treatment via the hilum at a rate (5-20 ppm) within the range effective in rescuing the hypocotyl of dwarf, GA-deficient plants causes a substantial oversupply in the level of GA3 compared to the levels of endogenous bioactive gibberellins GA1 and GA4 in germinating soybean seeds (FIG. 39). The data upon which FIG. 39 is based are taken from the experiment described below in the section entitled “Determination of half-lives and distribution of ^14C-labeled GA compounds in planta”. More particularly, the data in FIG. 39 are taken from the experiment in which ^14C-GA3 is applied to the hilum at 20 ppm.
# The concentration of GA3 in the seedling axis appeared to be directly proportional to the amount of GA3 applied to the seed.
# The details are as follows.
# [3] = system: pMON29801 soybean lines 719 and 724; assay: GA3 soil drench, emergence and shoot length of FMV/asCPScc soybean; conditions: for Plant height (cm): +3 × 10^−6 M GA3 soil drench, 7 days after planting
# Description: Thirty-five soybean plants are produced by transformation with pMON29801 (FIG. 7) containing the antisense CPS conserved core (asCPScc) gene driven by constitutive FMV promoter. The seed (R1) from the initial R0 transgenic lines is collected. R1 seeds are sown in 4-inch pots filled with commercial potting soil (Metromix 350) that is saturated with water or GA3 at a rate of either 3×10^−6 or 10^−5 M. Typically, 20 seeds are sown in 10 pots for each treatment, except where the seed supply is limiting. Pots are incubated in a greenhouse routinely used for soybean growth. Emergence is scored versus days after planting (DAP). Two soybean lines, 724 and 720, show a delayed emergence phenotype. Line 724 emergence is 1 to 2 days later than the control.
# as §1
# GA3 added to plasmid pMON29801 transgenic soybean seeds as a soil drench also restores soybean emergence timing and plant height during early seedling growth. Rates of GA3 between 1×10^−6 and 1×10^−5 M, when added to soil either immediately before planting or immediately after, restores normal shoot length in emerged Line #719 seedlings (Table 5).
structure (smiles),measurement,setting,value
"C=C1C[C@]23C[C@@]1(O)CC[C@H]2[C@@]12C=C[C@H](O)[C@@](C)(C(=O)O1)[C@H]2[C@@H]3C(=O)O [GA3, gibberellic acid]",reversal of ancymidol inhibition of soybean stature,[1],Good reversal of ancymidol inhibition of soybean stature
same,GA3 in seedling axis relative to combined endogenous bioactive GAs in untreated tissue,"[2]; 20 ppm, 1 DAP",approximately 100 times higher
same,concentration at 1 day after planting,"[2]; Asgrow 3237, soybean (Glycine max), seedling axis, other: seed treatment applied to the hilum, ^14C-GA3 applied to the hilum at 20 ppm, one day after planting, read-out: calculated concentration of GA3 delivered to the seedling axis",4.31 µM
same,Plant height (cm),[3]; R1 line 719,11.3 (1.0) cm
same,Plant height (cm),[3]; R1 line 724,10.9 (0.9) cm
same,"plant stature, difference from the A3237 control","[3]; line 724, soil saturated with 3×10^−6 M GA3, 7 DAP",≤ 10%
